The values that follow come from publication PMC5933747 (PLoS ONE, 2018).

Read-outs that look alike come from different tables or passages of the source. Where only a bound is given, the exact number is not on record here.

What all share (type): cell-based
The target in one series is human NaV1.7 (Homo sapiens, UniProt Q15858). Nature of the series: IonWorks Quattro (IWQ) electrophysiology, human NaV1.7. Conditions: read-out: Ala mutant IWQ IC50 NaV1.7. On the technique in general: Patch clamp records ionic current or voltage across a cell membrane.
The next series addresses human NaV1.4 (Homo sapiens, UniProt P35499). Nature of the series: IonWorks Quattro (IWQ) electrophysiology, human NaV1.4.
The target in the next series is human NaV1.5 (Homo sapiens, UniProt Q14524). Nature of the series: IonWorks Quattro (IWQ) electrophysiology, human NaV1.5.
Sequence of human NaV1.5 (Q14524 whole entry): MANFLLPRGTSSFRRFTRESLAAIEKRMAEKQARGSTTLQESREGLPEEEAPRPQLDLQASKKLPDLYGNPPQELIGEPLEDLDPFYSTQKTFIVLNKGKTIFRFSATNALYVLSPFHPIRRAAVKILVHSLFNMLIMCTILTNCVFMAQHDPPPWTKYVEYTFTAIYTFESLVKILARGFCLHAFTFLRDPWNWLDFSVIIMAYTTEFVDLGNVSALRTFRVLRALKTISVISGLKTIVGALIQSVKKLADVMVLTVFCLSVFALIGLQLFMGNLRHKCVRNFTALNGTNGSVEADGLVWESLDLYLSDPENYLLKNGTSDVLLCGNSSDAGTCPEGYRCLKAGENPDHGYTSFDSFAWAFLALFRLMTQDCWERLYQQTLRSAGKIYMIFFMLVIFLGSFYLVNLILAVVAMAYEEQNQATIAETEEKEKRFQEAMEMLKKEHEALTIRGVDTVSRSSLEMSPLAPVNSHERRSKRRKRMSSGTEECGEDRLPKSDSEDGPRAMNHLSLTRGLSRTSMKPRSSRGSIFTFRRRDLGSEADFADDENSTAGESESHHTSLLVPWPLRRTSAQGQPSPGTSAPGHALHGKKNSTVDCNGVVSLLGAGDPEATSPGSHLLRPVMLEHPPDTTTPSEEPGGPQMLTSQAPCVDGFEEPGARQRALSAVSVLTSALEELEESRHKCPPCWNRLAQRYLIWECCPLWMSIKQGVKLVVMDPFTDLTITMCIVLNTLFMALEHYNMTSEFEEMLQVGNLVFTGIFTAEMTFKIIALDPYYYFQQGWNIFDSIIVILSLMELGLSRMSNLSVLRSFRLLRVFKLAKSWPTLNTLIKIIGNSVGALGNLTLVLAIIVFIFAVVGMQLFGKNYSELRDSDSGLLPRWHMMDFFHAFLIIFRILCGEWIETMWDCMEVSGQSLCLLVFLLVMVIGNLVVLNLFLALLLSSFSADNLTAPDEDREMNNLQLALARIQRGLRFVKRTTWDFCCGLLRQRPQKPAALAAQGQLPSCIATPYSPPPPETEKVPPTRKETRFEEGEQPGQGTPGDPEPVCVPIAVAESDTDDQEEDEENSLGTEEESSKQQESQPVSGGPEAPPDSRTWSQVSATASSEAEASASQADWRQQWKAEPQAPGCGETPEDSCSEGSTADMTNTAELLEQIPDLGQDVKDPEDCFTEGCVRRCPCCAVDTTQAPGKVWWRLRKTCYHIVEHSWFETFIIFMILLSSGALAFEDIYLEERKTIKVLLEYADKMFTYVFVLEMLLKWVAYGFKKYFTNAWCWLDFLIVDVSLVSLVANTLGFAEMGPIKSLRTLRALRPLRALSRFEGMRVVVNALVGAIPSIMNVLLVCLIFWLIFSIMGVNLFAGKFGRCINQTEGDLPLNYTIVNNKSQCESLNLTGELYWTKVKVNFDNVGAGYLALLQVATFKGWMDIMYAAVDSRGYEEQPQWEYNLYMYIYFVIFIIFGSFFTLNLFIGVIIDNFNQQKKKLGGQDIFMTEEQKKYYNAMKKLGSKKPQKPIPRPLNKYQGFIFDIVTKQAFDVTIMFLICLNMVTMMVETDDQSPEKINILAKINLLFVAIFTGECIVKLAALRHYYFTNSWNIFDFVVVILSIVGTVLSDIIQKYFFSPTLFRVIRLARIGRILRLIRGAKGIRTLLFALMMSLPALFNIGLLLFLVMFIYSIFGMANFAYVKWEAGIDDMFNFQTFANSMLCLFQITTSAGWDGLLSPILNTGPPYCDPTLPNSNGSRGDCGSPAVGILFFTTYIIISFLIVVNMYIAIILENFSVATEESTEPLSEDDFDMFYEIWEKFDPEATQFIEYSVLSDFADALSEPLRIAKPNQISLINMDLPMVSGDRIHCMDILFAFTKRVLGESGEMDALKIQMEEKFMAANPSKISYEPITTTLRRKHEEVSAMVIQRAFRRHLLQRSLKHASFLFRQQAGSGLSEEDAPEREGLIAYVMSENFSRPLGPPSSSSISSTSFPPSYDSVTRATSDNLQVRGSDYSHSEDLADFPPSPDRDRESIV
The mark [1] stands for this setting: read-out: Ala mutant IWQ IC50 NaV1.4.
Setting [2] is: human, read-out: Glu mutant IWQ IC50 NaV1.5.
[3] abbreviates: human, read-out: Ala mutant IWQ IC50 NaV1.5.

A word on the IC50: it is the midpoint of a concentration-inhibition curve.

Sequence of human NaV1.4 (P35499 whole entry): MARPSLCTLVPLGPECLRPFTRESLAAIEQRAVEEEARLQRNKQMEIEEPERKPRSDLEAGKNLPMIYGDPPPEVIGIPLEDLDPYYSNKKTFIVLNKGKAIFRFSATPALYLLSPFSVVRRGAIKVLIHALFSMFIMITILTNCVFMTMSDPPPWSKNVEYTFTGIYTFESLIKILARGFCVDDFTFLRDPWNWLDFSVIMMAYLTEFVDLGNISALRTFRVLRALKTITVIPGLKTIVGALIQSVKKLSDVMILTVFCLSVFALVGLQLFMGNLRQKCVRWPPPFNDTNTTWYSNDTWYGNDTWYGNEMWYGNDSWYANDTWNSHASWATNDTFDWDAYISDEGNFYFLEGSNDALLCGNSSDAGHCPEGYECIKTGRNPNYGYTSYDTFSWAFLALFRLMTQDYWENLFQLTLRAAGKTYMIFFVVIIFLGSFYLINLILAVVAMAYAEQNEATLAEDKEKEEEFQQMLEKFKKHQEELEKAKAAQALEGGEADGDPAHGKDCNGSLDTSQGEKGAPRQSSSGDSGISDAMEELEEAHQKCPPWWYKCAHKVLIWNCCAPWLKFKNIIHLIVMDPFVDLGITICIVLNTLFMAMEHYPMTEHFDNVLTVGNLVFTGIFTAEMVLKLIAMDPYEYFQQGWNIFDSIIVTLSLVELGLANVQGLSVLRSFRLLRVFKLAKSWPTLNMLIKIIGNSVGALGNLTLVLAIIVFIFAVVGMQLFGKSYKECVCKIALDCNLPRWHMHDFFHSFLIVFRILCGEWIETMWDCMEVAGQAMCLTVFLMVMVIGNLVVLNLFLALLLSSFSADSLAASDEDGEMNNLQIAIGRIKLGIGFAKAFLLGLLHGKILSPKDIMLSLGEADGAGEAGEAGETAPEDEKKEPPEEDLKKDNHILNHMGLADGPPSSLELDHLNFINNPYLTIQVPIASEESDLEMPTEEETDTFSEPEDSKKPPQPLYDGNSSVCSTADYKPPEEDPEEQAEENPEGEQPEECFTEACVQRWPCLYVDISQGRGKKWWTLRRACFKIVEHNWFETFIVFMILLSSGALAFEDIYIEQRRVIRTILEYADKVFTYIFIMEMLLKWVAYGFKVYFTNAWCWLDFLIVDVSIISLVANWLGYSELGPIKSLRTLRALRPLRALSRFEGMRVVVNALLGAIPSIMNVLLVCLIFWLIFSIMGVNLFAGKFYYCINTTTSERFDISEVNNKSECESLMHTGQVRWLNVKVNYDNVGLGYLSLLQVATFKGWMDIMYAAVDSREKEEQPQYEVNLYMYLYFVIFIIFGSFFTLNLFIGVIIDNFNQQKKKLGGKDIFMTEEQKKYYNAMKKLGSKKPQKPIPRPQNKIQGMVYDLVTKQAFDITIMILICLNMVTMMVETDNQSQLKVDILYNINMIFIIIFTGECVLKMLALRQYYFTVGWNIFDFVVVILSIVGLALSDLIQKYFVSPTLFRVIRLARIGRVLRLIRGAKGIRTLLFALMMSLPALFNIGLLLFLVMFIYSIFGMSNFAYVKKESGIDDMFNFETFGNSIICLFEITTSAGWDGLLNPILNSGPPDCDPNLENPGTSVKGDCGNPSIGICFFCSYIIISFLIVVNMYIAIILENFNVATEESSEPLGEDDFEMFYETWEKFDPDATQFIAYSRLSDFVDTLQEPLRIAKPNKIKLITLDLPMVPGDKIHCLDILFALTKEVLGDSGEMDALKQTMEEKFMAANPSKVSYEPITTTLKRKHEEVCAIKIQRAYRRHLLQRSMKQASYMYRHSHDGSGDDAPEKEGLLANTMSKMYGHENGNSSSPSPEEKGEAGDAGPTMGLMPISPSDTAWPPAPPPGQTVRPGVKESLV

On to `CC[C@H](C)[C@H](NC(=O)[C@@H](NC(=O)[C@H](CCCCN)NC(=O)[C@H](CCCNC(=N)N)NC(=O)[C@@H]1CSSC[C@@H]2NC(=O)[C@H](C)NC(=O)[C@H](CCCNC(=N)N)NC(=O)[C@H](CCCCN)NC(=O)[C@H](CO)NC(=O)[C@H](CC(=O)O)NC(=O)[C@@H]3CSSC[C@H](NC(=O)[C@H](CCCNC(=N)N)NC(=O)[C@H](CC(C)C)NC(=O)CNC(=O)[C@H](CCC(=O)O)NC(=O)[C@H](CSSC[C@H](NC(=O)[C@@H](N)Cc4ccc(O)cc4)C(=O)N[C@@H](CCC(N)=O)C(=O)N[C@@H](C)C(=O)N[C@@H](Cc4c[nH]c5ccccc45)C(=O)N[C@@H](CCSC)C(=O)N[C@@H](Cc4c[nH]c5ccccc45)C(=O)N[C@@H]([C@@H](C)O)C(=O)N3)NC2=O)C(=O)N[C@@H](CCCCN)C(=O)N[C@@H](CC(C)C)C(=O)N[C@@H](Cc2c[nH]c3ccccc23)C(=O)N1)[C@@H](C)CC)C(N)=O` [K4 Ala mutant], for which the IC50 on human NaV1.7 was 0.417 µM; on human NaV1.4 (setting [1]) it was 3.26 µM; at human NaV1.5 (read-out: Ala mutant IWQ IC50 NaV1.5) it was more than 10 µM. As for `CC[C@H](C)[C@H](NC(=O)[C@@H](NC(=O)[C@H](CCCCN)NC(=O)[C@H](CCCNC(=N)N)NC(=O)[C@@H]1CSSC[C@@H]2NC(=O)[C@H](C)NC(=O)[C@H](CCCNC(=N)N)NC(=O)[C@H](CCCCN)NC(=O)[C@H](CO)NC(=O)[C@H](CC(=O)O)NC(=O)[C@@H]3CSSC[C@H](NC(=O)[C@H](CCCNC(=N)N)NC(=O)[C@H](CC(C)C)NC(=O)CNC(=O)[C@H](CCC(=O)O)NC(=O)[C@H](CSSC[C@H](NC(=O)[C@@H](N)CCC(=O)O)C(=O)N[C@@H](CCC(N)=O)C(=O)N[C@@H](CCCCN)C(=O)N[C@@H](Cc4c[nH]c5ccccc45)C(=O)N[C@@H](CCSC)C(=O)N[C@@H](Cc4c[nH]c5ccccc45)C(=O)N[C@@H]([C@@H](C)O)C(=O)N3)NC2=O)C(=O)N[C@@H](CCCCN)C(=O)N[C@@H](CC(C)C)C(=O)N[C@@H](Cc2c[nH]c3ccccc23)C(=O)N1)[C@@H](C)CC)C(N)=O` [Y1 Glu mutant], the values for the IC50 on human NaV1.4 (read-out: Glu mutant IWQ IC50 NaV1.4) and on human NaV1.5 (setting [2]) were 0.235 µM and more than 5 µM, respectively. With `CC[C@H](C)[C@H](NC(=O)[C@H](CCCCN)NC(=O)[C@H](CCCNC(=N)N)NC(=O)[C@@H]1CSSC[C@@H]2NC(=O)[C@H](C)NC(=O)[C@H](CCCNC(=N)N)NC(=O)[C@H](CCCCN)NC(=O)[C@H](CO)NC(=O)[C@H](CC(=O)O)NC(=O)[C@@H]3CSSC[C@H](NC(=O)[C@H](CCCNC(=N)N)NC(=O)[C@H](CC(C)C)NC(=O)CNC(=O)[C@H](CCC(=O)O)NC(=O)[C@H](CSSC[C@H](NC(=O)[C@@H](N)Cc4ccc(O)cc4)C(=O)N[C@@H](CCC(N)=O)C(=O)N[C@@H](CCCCN)C(=O)N[C@@H](Cc4c[nH]c5ccccc45)C(=O)N[C@@H](CCSC)C(=O)N[C@@H](Cc4c[nH]c5ccccc45)C(=O)N[C@@H]([C@@H](C)O)C(=O)N3)NC2=O)C(=O)N[C@@H](CCCCN)C(=O)N[C@@H](CC(C)C)C(=O)N[C@@H](Cc2c[nH]c3ccccc23)C(=O)N1)C(=O)N[C@@H](CCC(=O)O)C(N)=O` [I29 Glu mutant], the IC50 at human NaV1.5 (setting [2]) is more than 5 µM. With `CC[C@H](C)[C@H](NC(=O)[C@@H](NC(=O)[C@H](CCCCN)NC(=O)[C@H](CCCNC(=N)N)NC(=O)[C@@H]1CSSC[C@@H]2NC(=O)[C@H](C)NC(=O)[C@H](CCCNC(=N)N)NC(=O)[C@H](CCCCN)NC(=O)[C@H](CO)NC(=O)[C@H](CC(=O)O)NC(=O)[C@@H]3CSSC[C@H](NC(=O)[C@H](C)NC(=O)[C@H](CC(C)C)NC(=O)CNC(=O)[C@H](CCC(=O)O)NC(=O)[C@H](CSSC[C@H](NC(=O)[C@@H](N)Cc4ccc(O)cc4)C(=O)N[C@@H](CCC(N)=O)C(=O)N[C@@H](CCCCN)C(=O)N[C@@H](Cc4c[nH]c5ccccc45)C(=O)N[C@@H](CCSC)C(=O)N[C@@H](Cc4c[nH]c5ccccc45)C(=O)N[C@@H]([C@@H](C)O)C(=O)N3)NC2=O)C(=O)N[C@@H](CCCCN)C(=O)N[C@@H](CC(C)C)C(=O)N[C@@H](Cc2c[nH]c3ccccc23)C(=O)N1)[C@@H](C)CC)C(N)=O` [R20 Ala mutant], the IC50 on human NaV1.4 (setting [1]) was 0.425 µM; on human NaV1.5 (setting [3]), 4.64 µM.

On to `CC[C@H](C)[C@H](NC(=O)[C@@H](NC(=O)[C@H](CCCCN)NC(=O)[C@H](CCCNC(=N)N)NC(=O)[C@@H]1CSSC[C@@H]2NC(=O)[C@H](C)NC(=O)[C@H](CCCNC(=N)N)NC(=O)[C@H](CCCCN)NC(=O)[C@H](CO)NC(=O)[C@H](CC(=O)O)NC(=O)[C@@H]3CSSC[C@H](NC(=O)[C@H](CCCNC(=N)N)NC(=O)[C@H](CC(C)C)NC(=O)CNC(=O)[C@H](CCC(=O)O)NC(=O)[C@H](CSSC[C@H](NC(=O)[C@@H](N)Cc4ccc(O)cc4)C(=O)N[C@@H](CCC(N)=O)C(=O)N[C@@H](CCCCN)C(=O)N[C@@H](Cc4c[nH]c5ccccc45)C(=O)N[C@@H](C)C(=O)N[C@@H](Cc4c[nH]c5ccccc45)C(=O)N[C@@H]([C@@H](C)O)C(=O)N3)NC2=O)C(=O)N[C@@H](CCCCN)C(=O)N[C@@H](CC(C)C)C(=O)N[C@@H](Cc2c[nH]c3ccccc23)C(=O)N1)[C@@H](C)CC)C(N)=O` [M6 Ala mutant], for which, at human NaV1.5 (setting [3]), the IC50 is more than 5 µM. `CC[C@H](C)[C@H](NC(=O)[C@@H](NC(=O)[C@H](CCCCN)NC(=O)[C@H](CCCNC(=N)N)NC(=O)[C@@H]1CSSC[C@@H]2NC(=O)[C@H](C)NC(=O)[C@H](CCCNC(=N)N)NC(=O)[C@H](CCCCN)NC(=O)[C@H](CCC(=O)O)NC(=O)[C@H](CC(=O)O)NC(=O)[C@@H]3CSSC[C@H](NC(=O)[C@H](CCCNC(=N)N)NC(=O)[C@H](CC(C)C)NC(=O)CNC(=O)[C@H](CCC(=O)O)NC(=O)[C@H](CSSC[C@H](NC(=O)[C@@H](N)Cc4ccc(O)cc4)C(=O)N[C@@H](CCC(N)=O)C(=O)N[C@@H](CCCCN)C(=O)N[C@@H](Cc4c[nH]c5ccccc45)C(=O)N[C@@H](CCSC)C(=O)N[C@@H](Cc4c[nH]c5ccccc45)C(=O)N[C@@H]([C@@H](C)O)C(=O)N3)NC2=O)C(=O)N[C@@H](CCCCN)C(=O)N[C@@H](CC(C)C)C(=O)N[C@@H](Cc2c[nH]c3ccccc23)C(=O)N1)[C@@H](C)CC)C(N)=O` [S11 Glu mutant]: on human NaV1.5 (setting [2]), the IC50 was more than 5 µM. As for `CC[C@H](C)[C@H](NC(=O)[C@@H](NC(=O)[C@H](CCCCN)NC(=O)[C@H](CCCNC(=N)N)NC(=O)[C@@H]1CSSC[C@@H]2NC(=O)[C@H](C)NC(=O)[C@H](CCCNC(=N)N)NC(=O)[C@H](CCCCN)NC(=O)[C@H](CO)NC(=O)[C@H](CC(=O)O)NC(=O)[C@@H]3CSSC[C@H](NC(=O)[C@H](CCCNC(=N)N)NC(=O)[C@H](CC(C)C)NC(=O)[C@H](C)NC(=O)[C@H](CCC(=O)O)NC(=O)[C@H](CSSC[C@H](NC(=O)[C@@H](N)Cc4ccc(O)cc4)C(=O)N[C@@H](CCC(N)=O)C(=O)N[C@@H](CCCCN)C(=O)N[C@@H](Cc4c[nH]c5ccccc45)C(=O)N[C@@H](CCSC)C(=O)N[C@@H](Cc4c[nH]c5ccccc45)C(=O)N[C@@H]([C@@H](C)O)C(=O)N3)NC2=O)C(=O)N[C@@H](CCCCN)C(=O)N[C@@H](CC(C)C)C(=O)N[C@@H](Cc2c[nH]c3ccccc23)C(=O)N1)[C@@H](C)CC)C(N)=O` [G18 Ala mutant], the IC50 at human NaV1.4 (setting [1]) is 0.265 µM; at human NaV1.5 (setting [3]) it was more than 5 µM.
